Results as given in ChEMBL document CHEMBL1130781, “Structure-based design and synthesis of a series of hydroxamic acids with a quaternary-hydroxy group in P1 as inhibitors of matrix metalloproteinases” (Bioorg Med Chem Lett, 1998).

Experiments:
Stromelysin-1 = Stromelysin-1 (Homo sapiens, UniProt P08254); test: Binding affinity against human matrix metalloprotease-3.
[1] = biological target: Matrix metalloproteinase-9 (Homo sapiens, UniProt P14780); test: Binding affinity was evaluated against matrix metalloprotease-9
Sequence of Matrix metalloproteinase-9 (P14780 whole entry): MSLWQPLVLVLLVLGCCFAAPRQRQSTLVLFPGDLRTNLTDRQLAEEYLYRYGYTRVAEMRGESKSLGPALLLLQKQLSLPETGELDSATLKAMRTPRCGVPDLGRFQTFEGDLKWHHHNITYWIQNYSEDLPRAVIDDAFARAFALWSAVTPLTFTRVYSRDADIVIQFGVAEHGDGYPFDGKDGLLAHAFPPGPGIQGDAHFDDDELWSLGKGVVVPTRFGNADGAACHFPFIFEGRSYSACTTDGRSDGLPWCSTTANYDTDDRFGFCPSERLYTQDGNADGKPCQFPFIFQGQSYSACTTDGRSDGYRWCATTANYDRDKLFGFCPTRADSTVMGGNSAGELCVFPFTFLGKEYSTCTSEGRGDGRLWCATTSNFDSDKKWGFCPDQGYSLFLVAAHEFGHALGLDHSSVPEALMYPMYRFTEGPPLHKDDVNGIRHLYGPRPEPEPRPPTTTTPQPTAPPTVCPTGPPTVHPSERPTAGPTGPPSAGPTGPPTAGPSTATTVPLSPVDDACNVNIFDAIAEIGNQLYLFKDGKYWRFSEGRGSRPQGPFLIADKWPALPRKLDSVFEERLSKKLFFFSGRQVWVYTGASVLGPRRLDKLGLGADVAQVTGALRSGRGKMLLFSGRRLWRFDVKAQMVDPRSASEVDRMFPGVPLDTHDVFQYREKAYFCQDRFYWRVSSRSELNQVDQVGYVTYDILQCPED

Interstitial collagenase = biological target: T1, Interstitial collagenase (Homo sapiens, UniProt P03956); test: Binding affinity was evaluated against matrix metalloprotease-1
T1 sequence (P03956 whole entry): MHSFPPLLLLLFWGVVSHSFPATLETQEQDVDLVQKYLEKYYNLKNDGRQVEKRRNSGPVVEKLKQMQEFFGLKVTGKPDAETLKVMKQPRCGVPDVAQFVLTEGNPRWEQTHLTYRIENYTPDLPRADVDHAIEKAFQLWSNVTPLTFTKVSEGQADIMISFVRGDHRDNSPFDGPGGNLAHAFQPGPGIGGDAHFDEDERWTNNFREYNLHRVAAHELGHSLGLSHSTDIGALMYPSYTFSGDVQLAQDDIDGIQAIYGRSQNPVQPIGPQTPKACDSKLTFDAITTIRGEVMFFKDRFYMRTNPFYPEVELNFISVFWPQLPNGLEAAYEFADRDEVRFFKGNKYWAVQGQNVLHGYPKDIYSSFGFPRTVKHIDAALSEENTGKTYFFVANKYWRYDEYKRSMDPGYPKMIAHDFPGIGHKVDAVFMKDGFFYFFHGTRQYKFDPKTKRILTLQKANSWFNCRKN

Sequence of Stromelysin-1 (P08254 whole entry): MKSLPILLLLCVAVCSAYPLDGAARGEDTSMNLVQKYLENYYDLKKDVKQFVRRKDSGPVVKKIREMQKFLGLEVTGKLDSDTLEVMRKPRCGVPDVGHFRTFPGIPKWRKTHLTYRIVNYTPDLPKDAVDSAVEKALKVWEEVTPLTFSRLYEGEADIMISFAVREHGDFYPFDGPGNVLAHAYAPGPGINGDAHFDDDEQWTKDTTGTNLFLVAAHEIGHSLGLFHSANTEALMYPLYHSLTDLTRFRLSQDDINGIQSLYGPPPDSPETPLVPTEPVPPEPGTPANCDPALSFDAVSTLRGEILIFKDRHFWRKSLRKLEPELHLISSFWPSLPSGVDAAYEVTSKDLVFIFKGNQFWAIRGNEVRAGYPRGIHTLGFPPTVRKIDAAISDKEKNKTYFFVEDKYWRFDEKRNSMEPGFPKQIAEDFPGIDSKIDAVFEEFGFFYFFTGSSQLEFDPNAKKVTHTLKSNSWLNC

Structure (SMILES)	Ki (Stromelysin-1)	Ki [1]	Ki (Interstitial collagenase)
CNC(=O)[C@H](Cc1ccc(OC)cc1)NC(=O)[C@H](CC(C)C)[C@](C)(O)C(=O)NO	> 10000 nM	–	–
C[C@](O)(C(=O)NO)[C@@H](CCCc1ccccc1)C(=O)N[C@@H](CCCCN)C(=O)NCCc1ccccc1	28 nM	1 nM	25 nM
CC(C)(C)OC(=O)[C@H](Cc1ccccc1)NC(=O)[C@H](CCCc1ccccc1)[C@@](C)(O)C(=O)NO	100 nM	34 nM	198 nM
CNC(=O)[C@H](Cc1ccc(OC)cc1)NC(=O)[C@H](CCCc1ccccc1)[C@@](C)(O)C(=O)NO	3 nM	< 1 nM	2 nM
CNC(=O)[C@H](CCCNC(=O)N1CCOCC1)NC(=O)[C@H](CCCc1ccccc1)[C@@](C)(O)C(=O)NO	70 nM	4 nM	53 nM
CNC(=O)[C@H](Cc1ccc(OC)cc1)NC(=O)[C@H](CCc1ccccc1)[C@@](C)(O)C(=O)NO	25 nM	2 nM	33 nM
CNC(=O)[C@H](CCCCN)NC(=O)[C@H](CCCc1ccccc1)[C@@](C)(O)C(=O)NO	32 nM	< 1 nM	15 nM
CNC(=O)[C@H](Cc1ccc(OC)cc1)NC(=O)[C@H](CC(C)C)[C@@](C)(O)C(=O)NO	13 nM	< 1 nM	0.6 nM
CNC(=O)[C@@H](NC(=O)[C@H](CCCc1ccccc1)[C@@](C)(O)C(=O)NO)C(C)(C)C	13 nM	< 1 nM	13 nM
C[C@](O)(C(=O)NO)[C@@H](CCCc1ccccc1)C(=O)N[C@@H](Cc1ccccc1)C(=O)O	25 nM	> 213 nM	167 nM
CNC(=O)[C@H](CCCNC(=O)OC(C)(C)C)NC(=O)[C@H](CCCc1ccccc1)[C@@](C)(O)C(=O)NO	13 nM	2 nM	16 nM
CNC(=O)[C@H](Cc1ccc(OC)cc1)NC(=O)[C@H](Cc1ccccc1)[C@@](C)(O)C(=O)NO	526 nM	5 nM	85 nM
C[C@@H](NC(=O)[C@H](CCCCN)NC(=O)[C@H](CCCc1ccccc1)[C@@](C)(O)C(=O)NO)c1ccccc1	168 nM	149 nM	282 nM
CNC(=O)[C@H](CCCNS(=O)(=O)N(C)C)NC(=O)[C@H](CCCc1ccccc1)[C@@](C)(O)C(=O)NO	24 nM	2 nM	22 nM
CNC(=O)[C@H](Cc1ccc(OC)cc1)NC(=O)[C@H](Cc1ccccc1)[C@](C)(O)C(=O)NO	> 10000 nM	–	–
CNC(=O)[C@H](Cc1ccc(OC)cc1)NC(=O)[C@H](CCc1ccccc1)[C@](C)(O)C(=O)NO	> 10000 nM	–	–
CNC(=O)[C@H](CCCN)NC(=O)[C@H](CCCc1ccccc1)[C@@](C)(O)C(=O)NO	103 nM	5 nM	18 nM
